Test results from PubChem BioAssay AID623924 (Vanderbilt Specialized Chemistry Center, 2012).
Active and inactive are the calls of the source.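 Rule for the calls: active = response changes with concentration, giving a dose-dependent curve as judged by the depositor; inactive = the rest, with no dose-dependent response.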

Biological target: Muscarinic acetylcholine receptor M1 (Homo sapiens) (UniProt P11229)
Test: human M1 receptor positive allosteric modulation, SAR follow-up, selectivity assay for M4 PAM optimization, CHO-K1 cells, calcium fluorescence (AID 623924)
Conditions: CHO-K1 hM1, calcium fluorescence, ACh EC20 potentiation; for % ACh max response: at 30 µM (top of the series)

Chain of Muscarinic acetylcholine receptor M1 (Homo sapiens) (P11229 whole entry, looked up): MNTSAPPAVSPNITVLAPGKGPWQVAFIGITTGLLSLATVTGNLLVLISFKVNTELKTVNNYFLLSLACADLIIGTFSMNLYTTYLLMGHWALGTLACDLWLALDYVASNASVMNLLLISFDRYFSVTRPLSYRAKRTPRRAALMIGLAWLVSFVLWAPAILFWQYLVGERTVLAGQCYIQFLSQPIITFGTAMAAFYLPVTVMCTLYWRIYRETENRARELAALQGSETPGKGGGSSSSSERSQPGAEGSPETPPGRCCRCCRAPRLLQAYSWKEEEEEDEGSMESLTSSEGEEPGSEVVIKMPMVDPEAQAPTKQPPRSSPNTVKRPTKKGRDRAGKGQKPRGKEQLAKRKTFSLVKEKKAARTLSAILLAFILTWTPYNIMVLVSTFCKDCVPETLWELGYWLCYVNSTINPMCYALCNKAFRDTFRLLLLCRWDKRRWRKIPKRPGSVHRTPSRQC

SMILES | % ACh max response | outcome | further results
Cc1nc2sc(C(=O)NCc3ccncn3)c(N)c2c(C)c1Cl | inactive |  | 
Cc1nc2sc(C(=O)NC3CC3)c(N)c2c(C)c1Cl |  |  | EC50: 969 nM
Cc1nc2sc(C(=O)NCc3ccncc3)c(N)c2c(C)c1Cl |  | inactive | 
Cc1nc2sc(C(=O)NCc3ccc4c(c3)OCO4)c(N)c2c(C)c1Cl |  | inactive | 
Cc1nc2sc(C(=O)NCc3nccs3)c(N)c2c(C)c1Cl | inactive |  | 
COc1ccc(C)c2sc(NC(=O)c3ccncc3)nc12 | inactive |  | 
Cc1nc2sc(C(=O)NCCc3ccncc3)c(N)c2c(C)c1Cl | inactive |  | 

Further lines, with some results ahead:

% ACh max response | outcome | SMILES | further results
 | inactive | Cc1nc2sc(C(=O)NCc3ccccc3)c(N)c2c(C)c1Cl | 
 | inactive | Cc1nc2sc(C(=O)NCc3cccnc3)c(N)c2c(C)c1Cl | 
inactive |  | Cc1nc2sc(C(=O)NCc3cccc(F)c3F)c(N)c2c(C)c1Cl | 
